Entries after “also recorded” stand apart in the source; their conditions may differ. Like-named read-outs stand apart in the source and are kept apart here. Positions of bridges follow the written chain, without caps; N, C: chain ends. Residues, ends and D or L forms follow the SMILES beside them. Groups on a side chain read outwards from the residue. *: point of attachment. PEG8 = NCCOCCOCCOCCOCCOCCOCCOCCOCCC(=O)O; Palmitoyl = CCCCCCCCCCCCCCCC(=O)*
How the values were obtained:
human V2 receptor = target: T1, human V2 receptor (Homo sapiens, UniProt P30518); experiment: V2R agonist activity, cAMP production by HTRF, stably transfected CHO cells; format: cell-based; settings: HTRF detection, read-out: hV2R, EC50
T1 construct: expressed in transfected cells; host or cells: CHO cells
T1 sequence (P30518 whole entry): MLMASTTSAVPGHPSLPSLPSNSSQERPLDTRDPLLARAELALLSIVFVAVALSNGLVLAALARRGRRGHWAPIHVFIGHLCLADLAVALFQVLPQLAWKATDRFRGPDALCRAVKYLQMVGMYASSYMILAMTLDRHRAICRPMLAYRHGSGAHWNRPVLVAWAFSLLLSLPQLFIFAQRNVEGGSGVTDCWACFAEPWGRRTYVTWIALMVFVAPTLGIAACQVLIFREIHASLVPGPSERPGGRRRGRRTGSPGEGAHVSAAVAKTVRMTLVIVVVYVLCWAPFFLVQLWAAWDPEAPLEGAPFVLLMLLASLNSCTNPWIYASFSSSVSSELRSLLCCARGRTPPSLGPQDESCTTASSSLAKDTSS
Experimental: V2R: Evaluation of the agonist activity of compounds at the human V2 receptor expressed in stably transfected CHO cells was conducted by measuring their effects on cAMP production using the HTRF detection method ([Cotte et al., 1998]).

[1] = Dose escalation: kaolin intake (pica, nausea/visceral malaise); format: in vivo, male DIO Sprague Dawley rats
Experimental: (§1) Sprague Dawley rats (male, ∼4 weeks of age, 51–75 g body weight) were switched from standard chow to a high fat diet (Research Diets, Diet # D12492, 60, 20, 20%kcal from fat, protein, and carbohydrate, respectively, 5.21 kcal/g; stored at −20°C). The rats were maintained on this diet for approximately 15 weeks prior to the start of experiments to develop a diet-induced overweight (DIO) model. Animals were individually housed on a 12 h/12 h light/dark cycle (lights on at 04:00 h) in a temperature (23°C) and humidity (mean 50%, SD 10%) controlled room. All body weight measurements were made just prior to the start of the dark cycle.
Sequential rounds of a 3-day baseline phase (vehicle treated), a 3-day treatment phase, and a washout phase (2–5 days as necessary) were tested. […] High fat diet was accessible to the rats from all but the last 6 h of the light cycle and water was provided ad libitum. This daily period of food restriction was used to prevent incidental feeding in the event animals were disturbed from their sleep by noise from surrounding rooms. To assess a potential pica response (nausea/visceral malaise) in animals, powdered kaolin (Sigma-Aldrich, K1512) was made available on drug treatment days with a restriction period similar to the high fat diet. Prior to the first experiment, rats were provided access to kaolin for 2 days so that they could familiarize themselves with it prior to start of testing. Food and kaolin intake were continuously recorded using AccuScan DietMax (currently OmniTech Electronics, Inc., Diet System) cages. The high fat diet was compressed in the food tray to form a solid block of food. This allows for more accurate meal size measurements by preventing the animals from removing entire pellets at time. All food and kaolin intake data were binned into 15-min intervals for analysis and the start of the 24-h food intake period aligned to the lights turning off in the animal room. Body weight was recorded, and treatment injections were administered just prior to the start of the dark cycle.

[2] = Long-term (28-day) drug intervention: body weight; format: in vivo, male DIO Sprague Dawley rats; settings: treatment days 9-28
Experimental: as §1
(§2) Male DIO Sprague Dawley rats (n = 24) were generated as outlined above and were 644.5 g (50 g) at the start of drug treatment. The animals were divided into three treatment groups (n = 8 each) balanced for body weight, body weight gain during baseline, food intake, and Lee Index [body weight^(1/3)/snout to anus length (mm)] ([Lee, 1929]; [Simson and Gold, 1982]) as an indicator of adiposity (Figure 2). In a subset of the animals (n = 5 per group, balanced for prior mentioned criteria), Mini-Mitter transponders (PDT-4000 E-Mitter, Respironics Inc.) were implanted posterior to the left scapula at least 9 days prior to start of baseline measures to ensure sufficient recovery time. Body temperature and gross motor activity were continuously recorded via these transponders. […] High fat diet and water were provided ad libitum and intake was recorded with daily hopper and water bottle weighs at time of body weight assessment just prior to drug administration. Blood samples were taken at start of intervention by tail vein bleeding and via cardiac puncture under an isoflurane induced surgical plane of anesthesia at euthanasia. Animals were euthanized on treatment day 29, 4 h after receiving a dose of their assigned treatment, via decapitation under isoflurane anesthesia immediately following blood draw. Body composition was assessed on carcasses.
From treatment day 8 on the doses were maintained to assess long-term efficacy at a therapeutically meaningful dose.

Toxicity / mortality = format: in vivo
[3] = sc and iv, rodents; ref Modi et al., 2016; cited from earlier work
[4] = Long-term: gross motor activity and body temperature (Mini-Mitter transponders); format: in vivo, male DIO Sprague Dawley rats; settings: 28-day study, n = 5 per group; first 12 days analysed
Text: as §2
For comparisons of mean longitudinal changes in body temperature and activity, only the first 12 days of treatment, divided into three 4-day phases, were included in the analysis. These 4-day phases allowed for analyses to consider the ASK1476 dose titration.

[5] = ref Modi et al., 2016, cited from earlier work
Text: This property allows for reduction of the free fraction of ASK1476 available for enzymatic degradation. The pharmacokinetics study protocol for ASK1476 in mice and rats was described before ([Modi et al., 2016]).

[6] = Long-term: hormone and metabolic blood parameters; format: in vivo, male DIO Sprague Dawley rats
Text: as §2, with “Animals were euthanized on treatment day 29, 4 h after receiving a dose of their assigned treatment, via decapitation under isoflurane anesthesia immediately following blood draw.” left out
Commercially available enzyme-linked immunosorbent assays (ELISA) were used for quantitative assessment of leptin (MilliporeSigma, Burlington, MA) and insulin (MilliporeSigma, Burlington, MA); all with intra-assay CV < 4%. […]

CCCCCCCCCCCCCCCC(=O)NCCOCCOCCOCCOCCOCCOCCOCCOCCC(=O)NCCCC[C@H](NC(=O)CNC(=O)[C@@H]1CSSC[C@H](N)C(=O)N[C@@H](Cc2ccc(O)cc2)C(=O)N[C@@H]([C@@H](C)CC)C(=O)N[C@@H](CCC(N)=O)C(=O)N[C@@H](CC(N)=O)C(=O)N1)C(=O)NCC(N)=O [ASK1476] (H-CYIQNCGK([PEG8-Palmitoyl])G-NH2; disulfide 1-6)
EC50 (human V2 receptor): 0.36 nM
relationship between kaolin consumption and baseline normalized food intake ([1]; ASK1476 6, 15, 30, 60, 120 and 300 nmol/kg): no significant association
visceral malaise signal (notably high kaolin intake in a few animals) ([1]; ASK1476 dosing spectrum): may result in visceral malaise in a subset of animals
kaolin intake of several animals at higher doses ([1]; ASK1476 ≥ 30 nmol/kg/d, several animals, not seen with OXT): > 4 g/day
kaolin intake, trend with dose ([1]; increasing ASK1476 doses, not significant): increasing trend
kaolin intake at low doses ([1]; low doses, sc once daily): below 4 g/d
kaolin intake, effect of treatment ([1]; sc once daily, ASK1476 6-300 nmol/kg F(1.80, 12.59) = 2.26, p = 0.148, OXT 20-1200 nmol/kg F(1.51, 10.52) = 1.73, p = 0.223): no significant effect of treatment
weight stability during final 20 days [2]: remained weight stable
death (Toxicity / mortality; 150 nmol/kg intraperitoneal, unpublished dosing experiment): death of a rat
death (Toxicity / mortality; 300 nmol/kg daily sc, after third dose, cause of death not established): one rat was found dead
half-life vs OXT [3]: increased half-life
plasma protein binding vs OXT [3]: increased plasma protein binding
locomotor activity or body temperature [4]: no effects were detected on locomotor activity or body temperature; also recorded: did not find any evidence
half-life vs OXT ([5]; iv, rats, compared to OXT): extended half-life
plasma clearance vs OXT ([5]; iv, rats, compared to OXT): reduced plasma clearance
steady-state volume of distribution vs OXT ([5]; iv, rats, compared to OXT): increased steady-state volume of distribution
brain to plasma concentration ratio (distribution) ([5]; sc, depot formulation): almost exclusive compartmentalization of the molecule to plasma
concentrations in the central compartments ([5]; sc, depot formulation): only minimal concentrations detectable
plasma exposure ([5]; sc, depot formulation): prolonged exposure in the plasma
total maximal plasma concentration (Cmax) ([5]; sc, mice, at 2 h post-dose): improved total maximal plasma concentration (Cmax)
half-life ([5]; sc, mice): extended half-life
serum ALT, difference vs vehicle ([6]; ASK1476, 95% CI −2.1 to −13.2, p = 0.006): −7.6 U/L
ALT, post-treatment ([6]; after 28-day Tx, serum, n = 8, Mean ± SD, ASK1476 ** p < 0.01 vs vehicle, ANOVA p 0.009): 0.440.06** μmol/(sL)
